Reference: ChEMBL document CHEMBL4715874, “In Vivo Screening of Xanthones from Garcinia oligantha Identified Oliganthin H as a Novel Natural Inhibitor of Convulsions” (J Nat Prod, 2020)
Calls of active or inactive are those of the source. The rule behind the calls is not given here.

Assays:
[1] = species: Danio rerio; assay: Anticonvulsant activity in AB zebra fish larvae assessed as reduction in PTZ-induced convulsant behavior by measuring lowest observed effect concentration pretreated for 6 hrs followed by PTZ-stimulation and measured every 5 mins for 1 hr; assay type: functional; details: time 7 hrs
[2] = Neurotoxicity in AB zebra fish larvae assessed as increase in total swimming distance at > 12.5 uM after 6 hrs; assay type: toxicity, Danio rerio; details: zebrafish
[3] = Toxicity in AB zebra fish larvae assessed as maximum tolerated concentration after 6 hrs; parameters: species or system Danio rerio; details: zebrafish, read-out: MTC
[4] = Ratio of MTC for toxicity in AB zebra fish larvae to lowest observed effect concentration for Anticonvulsant activity in AB zebra fish larvae assessed as reduction in PTZ-induced convulsant behavior; parameters: species or system Danio rerio
[5] = Neurotoxicity in AB zebra fish larvae at 25 uM after 6 hrs; assay type: toxicity, Danio rerio; details: zebrafish
[6] = species: Danio rerio; assay: Anticonvulsant activity in AB zebra fish larvae assessed as reduction in PTZ-induced convulsant behavior by measuring swimming distance at 3.1 to 12.5 uM pretreated for 6 hrs followed by PTZ-stimulation and measured every 5 mins for 1 hr; assay type: functional, organism-based; details: dose 3.1-12.5 µM, time 7.0 hrs
[7] = Neurotoxicity in AB zebra fish larvae assessed as decrease in total swimming distance at <= MTC after 6 hrs; assay type: toxicity, Danio rerio; details: zebrafish
[8] = Toxicity in AB zebra fish larvae assessed as mortality at >= 25 uM after 6 hrs; parameters: species or system Danio rerio; details: zebrafish
[9] = Toxicity in AB zebra fish larvae assessed as mortality at >= 6.2 uM after 6 hrs relative to control; parameters: species or system Danio rerio; details: zebrafish
[10] = Neurotoxicity in AB zebra fish larvae at 1.5 uM after 6 hrs; assay type: toxicity, Danio rerio; details: zebrafish
[11] = species: Danio rerio; assay: Anticonvulsant activity in AB zebra fish larvae assessed as reduction in PTZ-induced convulsant behavior by measuring swimming distance at 0.7 uM pretreated for 6 hrs followed by PTZ-stimulation and measured every 5 mins for 1 hr; assay type: functional, organism-based; details: time 7.0 hrs

SMILES	Activity [1]	Activity [2]	MNTC at 6 h [3]	Ratio [4]	Activity [5]	Activity [6]	Activity [7]	Activity [8]	mortality at 6 h [9]	Activity [10]	Activity [11]
CC(C)=CCC1(CC=C(C)C)C(=O)C(O)=C(O)c2oc3c4c(cc(O)c3c(=O)c21)OC(C)(C)C=C4	>12.5 µM	Toxic	12.5 µM	<1	Toxic	inactive	Non-Toxic	Toxic	–	–	–
CC(C)=CCC12CC(C(C)(C)O)OC1=C(O)C(=O)c1oc3c4c(cc(O)c3c(=O)c12)OC(C)(C)C=C4 (stereo not given)	0.7 µM	–	0.7 µM	1	–	–	Non-Toxic	–	100%	Toxic	Active
